Data reported in PubChem BioAssay AID1259407 (Chemical Carcinogenesis Research Information System (CCRIS), 2018).
Calls of active or inactive are those of the source. How the calls were made is not given here.

Test system: CCRIS mutagenicity, Ames/micronucleus/aberration tests
Test: CCRIS mutagenicity studies
[1] = Test System: AMES SALMONELLA TYPHIMURIUM, Strain/Indicator: TA98, Metabolic Activation: NONE, Method: PREINCUBATION
[2] = Test System: AMES SALMONELLA TYPHIMURIUM, Strain/Indicator: TA100, Metabolic Activation: NONE, Method: PREINCUBATION
[3] = Test System: AMES SALMONELLA TYPHIMURIUM, Strain/Indicator: TA1535, Metabolic Activation: NONE, Method: PREINCUBATION

Measured: mutagenic call

C[C@H](CCC(=O)O)[C@H]1CC[C@H]2[C@@H]3CC[C@@H]4C[C@H](O)CC[C@]4(C)[C@H]3CC[C@]12C
inactive: Test System: AMES SALMONELLA TYPHIMURIUM, Strain/Indicator: TA97, Metabolic Activation: HAMSTER, LIVER, S-9, AROCLOR 1254 (10 OR 30%), Method: PREINCUBATION inactive; negative | Test System: AMES SALMONELLA TYPHIMURIUM, Strain/Indicator: TA97, Metabolic Activation: NONE, Method: PREINCUBATION inactive; negative | Test System: AMES SALMONELLA TYPHIMURIUM, Strain/Indicator: TA97, Metabolic Activation: RAT, LIVER, S-9, AROCLOR 1254 (10%), Method: PREINCUBATION inactive; negative | Test System: AMES SALMONELLA TYPHIMURIUM, Strain/Indicator: TA97, Metabolic Activation: RAT, LIVER, S-9, AROCLOR 1254 (30%), Method: PREINCUBATION inactive; negative | Test System: AMES SALMONELLA TYPHIMURIUM, Strain/Indicator: TA98, Metabolic Activation: HAMSTER, LIVER, S-9, AROCLOR 1254 (10 OR 30%), Method: PREINCUBATION inactive; negative | Test System: AMES SALMONELLA TYPHIMURIUM, Strain/Indicator: TA98, Metabolic Activation: NONE, Method: FLUCTUATION TEST inactive; negative | [1] inactive; negative | Test System: AMES SALMONELLA TYPHIMURIUM, Strain/Indicator: TA98, Metabolic Activation: RAT, LIVER, S-9, AROCLOR 1254 (10%), Method: PREINCUBATION inactive; negative | Test System: AMES SALMONELLA TYPHIMURIUM, Strain/Indicator: TA98, Metabolic Activation: RAT, LIVER, S-9, AROCLOR 1254 (30%), Method: PREINCUBATION inactive; negative | Test System: AMES SALMONELLA TYPHIMURIUM, Strain/Indicator: TA98, Method: PREINCUBATION inactive; negative | Test System: AMES SALMONELLA TYPHIMURIUM, Strain/Indicator: TA100, Metabolic Activation: HAMSTER, LIVER, S-9, AROCLOR 1254 (10 OR 30%), Method: PREINCUBATION inactive; negative | Test System: AMES SALMONELLA TYPHIMURIUM, Strain/Indicator: TA100, Metabolic Activation: NONE, Method: FLUCTUATION TEST inactive; negative | [2] inactive; negative | Test System: AMES SALMONELLA TYPHIMURIUM, Strain/Indicator: TA100, Metabolic Activation: NONE, Method: STANDARD PLATE inactive; negative | Test System: AMES SALMONELLA TYPHIMURIUM, Strain/Indicator: TA100, Metabolic Activation: RAT, LIVER, S-9, AROCLOR 1254 (10%), Method: PREINCUBATION inactive; negative | Test System: AMES SALMONELLA TYPHIMURIUM, Strain/Indicator: TA100, Metabolic Activation: RAT, LIVER, S-9, AROCLOR 1254 (30%), Method: PREINCUBATION inactive; negative | Test System: AMES SALMONELLA TYPHIMURIUM, Strain/Indicator: TA100, Metabolic Activation: RAT, LIVER, S-9, AROCLOR 1254, Method: STANDARD PLATE inactive; negative | Test System: AMES SALMONELLA TYPHIMURIUM, Strain/Indicator: TA1535, Metabolic Activation: HAMSTER, LIVER, S-9, AROCLOR 1254 (10 OR 30%), Method: PREINCUBATION inactive; negative | [3] inactive; negative | Test System: AMES SALMONELLA TYPHIMURIUM, Strain/Indicator: TA1535, Metabolic Activation: RAT, LIVER, S-9, AROCLOR 1254 (10%), Method: PREINCUBATION inactive; negative | Test System: AMES SALMONELLA TYPHIMURIUM, Strain/Indicator: TA1535, Metabolic Activation: RAT, LIVER, S-9, AROCLOR 1254 (30%), Method: PREINCUBATION inactive; negative | Test System: E. COLI, Strain/Indicator: WP2 UVRA, Metabolic Activation: HAMSTER, LIVER, S-9, AROCLOR 1254, Method: STANDARD PLATE inactive; negative | Test System: E. COLI, Strain/Indicator: WP2 UVRA, Metabolic Activation: HAMSTER, LIVER, S-9, Method: STANDARD PLATE inactive; negative | Test System: E. COLI, Strain/Indicator: WP2 UVRA, Metabolic Activation: MOUSE, LIVER, S-9, AROCLOR 1254, Method: STANDARD PLATE inactive; negative | Test System: E. COLI, Strain/Indicator: WP2 UVRA, Metabolic Activation: MOUSE, LIVER, S-9, Method: STANDARD PLATE inactive; negative | Test System: E. COLI, Strain/Indicator: WP2 UVRA, Metabolic Activation: NONE, Method: STANDARD PLATE inactive; negative | Test System: E. COLI, Strain/Indicator: WP2 UVRA, Metabolic Activation: RAT, LIVER, S-9, AROCLOR 1254, Method: STANDARD PLATE inactive; negative | Test System: E. COLI, Strain/Indicator: WP2 UVRA, Metabolic Activation: RAT, LIVER, S-9, Method: STANDARD PLATE inactive; negative | Test System: MOUSE LYMPHOMA, Strain/Indicator: L5178Y (TK+/TK-), Metabolic Activation: RAT, LIVER, S-9, AROCLOR 1254, Method: SUSPENSION/PLATE inactive; negative | Test System: MOUSE LYMPHOMA, Strain/Indicator: L5178Y (TK+/TK-), Metabolic Activation: RAT, LIVER, S-9, Method: SUSPENSION/PLATE inactive; negative

c1ccc2c(c1)sc1ccccc12
inactive: Test System: CHINESE HAMSTER OVARY, Strain/Indicator: CHO-K1-BH4 (HGPRT)/6-THIOGUANINE, Metabolic Activation: RAT, LIVER, S-9, AROCLOR (4%) inactive; negative

Nc1nc(N)nc(-c2ccccc2)n1
inactive: [1] inactive; negative | Test System: AMES SALMONELLA TYPHIMURIUM, Strain/Indicator: TA98, Metabolic Activation: RAT, LIVER, S-9, PHENOBARBITAL AND BETA-NAPHTHOFLAVONE, Method: PREINCUBATION inactive; negative | [2] inactive; negative | Test System: AMES SALMONELLA TYPHIMURIUM, Strain/Indicator: TA100, Metabolic Activation: RAT, LIVER, S-9, PHENOBARBITAL AND BETA-NAPHTHOFLAVONE, Method: PREINCUBATION inactive; negative | Test System: AMES SALMONELLA TYPHIMURIUM, Strain/Indicator: TA102, Metabolic Activation: NONE, Method: PREINCUBATION inactive; negative | Test System: AMES SALMONELLA TYPHIMURIUM, Strain/Indicator: TA102, Metabolic Activation: RAT, LIVER, S-9, PHENOBARBITAL AND BETA-NAPHTHOFLAVONE, Method: PREINCUBATION inactive; negative | Test System: AMES SALMONELLA TYPHIMURIUM, Strain/Indicator: TA104, Metabolic Activation: NONE, Method: PREINCUBATION inactive; negative | Test System: AMES SALMONELLA TYPHIMURIUM, Strain/Indicator: TA104, Metabolic Activation: RAT, LIVER, S-9, PHENOBARBITAL AND BETA-NAPHTHOFLAVONE, Method: PREINCUBATION inactive; negative | [3] inactive; negative | Test System: AMES SALMONELLA TYPHIMURIUM, Strain/Indicator: TA1535, Metabolic Activation: RAT, LIVER, S-9, PHENOBARBITAL AND BETA-NAPHTHOFLAVONE, Method: PREINCUBATION inactive; negative | Test System: AMES SALMONELLA TYPHIMURIUM, Strain/Indicator: TA1537, Metabolic Activation: NONE, Method: PREINCUBATION inactive; negative | Test System: AMES SALMONELLA TYPHIMURIUM, Strain/Indicator: TA1537, Metabolic Activation: RAT, LIVER, S-9, SODIUM PHENOBARBITAL AND 5,6-BENZOFLAVONE, Method: PREINCUBATION inactive; negative | Test System: E. COLI, Strain/Indicator: WP2UVRA/PKM101, Metabolic Activation: NONE, Method: PREINCUBATION inactive; negative | Test System: E. COLI, Strain/Indicator: WP2UVRA/PKM101, Metabolic Activation: RAT, LIVER, S-9, SODIUM PHENOBARBITAL AND 5,6-BENZOFLAVONE, Method: PREINCUBATION inactive; negative | Test System: E. COLI, Strain/Indicator: WP2UVRA, Metabolic Activation: NONE, Method: PREINCUBATION inactive; negative | Test System: E. COLI, Strain/Indicator: WP2UVRA, Metabolic Activation: RAT, LIVER, S-9, PHENOBARBITAL AND BETA-NAPHTHOFLAVONE, Method: PREINCUBATION inactive; negative
